Measured values taken from patent US20240343704A1, “HALO-SUBSTITUTED AMINO PYRIDINE COMPOUNDS AS INHIBITORS OF THE HAEMATOPOIETIC PROGENITOR KINASE 1 (HPK1)” (priority 2021, published 2024).

Molecular target: T1, Recombinant (1-346) HPK1 (h) (Homo sapiens, UniProt Q92918)
T1 construct: Recombinant (1-346) HPK1 (h) is incubated with 8 mM MOPS pH 7.0
T1 sequence (Q92918 1-346): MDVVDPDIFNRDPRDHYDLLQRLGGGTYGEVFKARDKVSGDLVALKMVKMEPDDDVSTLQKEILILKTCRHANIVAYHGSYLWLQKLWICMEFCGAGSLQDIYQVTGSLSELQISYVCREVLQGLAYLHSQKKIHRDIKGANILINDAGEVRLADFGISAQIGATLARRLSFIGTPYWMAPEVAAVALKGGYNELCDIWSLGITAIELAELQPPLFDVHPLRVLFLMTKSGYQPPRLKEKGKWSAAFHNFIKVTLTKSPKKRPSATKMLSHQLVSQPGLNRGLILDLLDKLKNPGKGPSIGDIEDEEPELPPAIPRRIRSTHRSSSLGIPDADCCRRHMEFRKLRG
Assay: HPK1 Human STE Kinase Enzymatic Radiometric Assay
Assay type: biochemical
Conditions: read-out: HPK1 IC50 nM Range*
Protocol: A stock solution of 10 mM of test compound is prepared in DMSO. The compound plate was prepared by 3-fold and 9-point serial dilutions. […] The reaction is initiated by The addition of the Mg/ATP mix. After incubation for 40 minutes at RT, the reaction is stopped by the addition of phosphoric acid to a concentration of 0.5%.

Row | IC50 [nM] | SMILES
1 | 0.1 to 10 | CN(C)Cc1cc(-c2cc(-c3cc4c(cc3F)C(=O)NCC4)c(N)nc2F)ccc1N1CCN(C2CCC2)CC1 [I-462, 6-(2-amino-5-(4-(4-cyclobutylpiperazin-1-yl)-3-((dimethylamino)methyl)phenyl)-6-fluoropyridin-3-yl)-7-fluoro-3,4-dihydroisoquinolin-1(2H)-one]
2 | > 1000 | CN1CCc2c(cccc2-c2cc(-c3ccc4c(c3)CCNC4=O)c(N)nc2F)C1 [I-463, 6-(2-amino-6-fluoro-5-(2-methyl-1,2,3,4-tetrahydroisoquinolin-5-yl)pyridin-3-yl)-3,4-dihydroisoquinolin-1(2H)-one]
3 | > 1000 | CN1CCc2c(cccc2-c2cc(-c3cc4c(cc3F)C(=O)NCC4)c(N)nc2F)C1 [I-464, 6-(2-amino-6-fluoro-5-(2-methyl-1,2,3,4-tetrahydroisoquinolin-5-yl)pyridin-3-yl)-7-fluoro-3,4-dihydroisoquinolin-1(2H)-one]
4 | 101 to 1000 | Cc1nc2cc(-c3cc(-c4ccc(N5CCN(C(C)C)CC5)cc4)c(F)nc3N)ccc2c(=O)n1N [I-465, 3-amino-7-(2-amino-6-fluoro-5-(4-(4-isopropylpiperazin-1-yl)phenyl)pyridin-3-yl)-2-methylquinazolin-4(3H)-one]
5 | 11 to 100 | CC(C)N1CCN(c2ccc(-c3cc(-c4ccc5c(=O)[nH]cc(Cl)c5c4)c(N)nc3F)cc2)CC1 [I-466, 6-(2-amino-6-fluoro-5-(4-(4-isopropylpiperazin-1-yl)phenyl)pyridin-3-yl)-4-chloroisoquinolin-1(2H)-one]
6 | 0.1 to 10 | Cc1nc2cc(-c3cc(-c4ccc(N5CCN(CCCC(F)F)CC5)cc4)c(F)nc3N)cc(F)c2c(=O)[nH]1 [I-467, 7-(2-amino-5-(4-(4-(4,4-difluorobutyl)piperazin-1-yl)phenyl)-6-fluoropyridin-3-yl)-5-fluoro-2-methylquinazolin-4(3H)-one]
7 | 11 to 100 | Cc1nc2cc(-c3cc(-c4ccc([C@]56C[C@H]5CN(C)C6)cc4)c(F)nc3N)ccc2c(=O)[nH]1 [I-468, 7-(2-amino-6-fluoro-5-(4-((1S,5R)-3-methyl-3-azabicyclo[3.1.0]hexan-1-yl)phenyl)pyridin-3-yl)-2-methylquinazolin-4(3H)-one]
8 | 11 to 100 | Cc1nc2cc(-c3cc(-c4ccc([C@]56C[C@H]5CN(C)C6)cc4)c(F)nc3N)cc(F)c2c(=O)[nH]1 [I-469, 7-(2-amino-6-fluoro-5-(4-((1S,5R)-3-methyl-3-azabicyclo[3.1.0]hexan-1-yl)phenyl)pyridin-3-yl)-5-fluoro-2-methylquinazolin-4(3H)-one]
9 | 0.1 to 10 | CN1C[C@@H]2C[C@]2(c2ccc(-c3cc(-c4ccc5c(=O)[nH]cc(F)c5c4)c(N)nc3F)cc2)C1 [I-470, 6-(2-amino-6-fluoro-5-(4-((1S,5R)-3-methyl-3-azabicyclo[3.1.0]hexan-1-yl)phenyl)pyridin-3-yl)-4-fluoroisoquinolin-1(2H)-one]
10 | 0.1 to 10 | Cc1c[nH]c(=O)c2ccc(-c3cc(-c4ccc([C@]56C[C@H]5CN(C)C6)cc4)c(F)nc3N)cc12 [I-471, 6-(2-amino-6-fluoro-5-(4-((1S,5R)-3-methyl-3-azabicyclo[3.1.0]hexan-1-yl)phenyl)pyridin-3-yl)-4-methylisoquinolin-1(2H)-one]
11 | 0.1 to 10 | Cc1nc2cc(-c3cc(-c4ccc(N5CCN(C6CCC6)CC5)cc4)c(F)nc3N)ccc2c(=O)[nH]1 [I-472, 7-(2-amino-5-(4-(4-cyclobutylpiperazin-1-yl)phenyl)-6-fluoropyridin-3-yl)-2-methylquinazolin-4(3H)-one]
12 | 0.1 to 10 | Cc1nc2cc(-c3cc(-c4ccc(N5CCN(C6CCC6)CC5)cc4)c(F)nc3N)cc(F)c2c(=O)[nH]1 [I-473, 7-(2-amino-5-(4-(4-cyclobutylpiperazin-1-yl)phenyl)-6-fluoropyridin-3-yl)-5-fluoro-2-methylquinazolin-4(3H)-one]
13 | 11 to 100 | Cc1nc2cc(-c3cc(-c4ccc(N5CCOCC5)c(CN(C)C)c4)c(F)nc3N)ccc2c(=O)[nH]1 [I-474, 7-(2-amino-5-(3-((dimethylamino)methyl)-4-morpholinophenyl)-6-fluoropyridin-3-yl)-2-methylquinazolin-4(3H)-one]
14 | 11 to 100 | Cc1nc2cc(-c3cc(-c4ccc(N5CCOCC5)c(CN(C)C)c4)c(F)nc3N)cc(F)c2c(=O)[nH]1 [I-475, 7-(2-amino-5-(3-((dimethylamino)methyl)-4-morpholinophenyl)-6-fluoropyridin-3-yl)-5-fluoro-2-methylquinazolin-4(3H)-one]
15 | 0.1 to 10 | Nc1nc(F)c(-c2ccc(N3CCN(CCC(F)F)CC3)cc2)cc1-c1ccc2c(c1)CCNC2=O [I-476, 6-(2-amino-5-(4-(4-(3,3-difluoropropyl)piperazin-1-yl)phenyl)-6-fluoropyridin-3-yl)-3,4-dihydroisoquinolin-1(2H)-one]
16 | 0.1 to 10 | Nc1nc(F)c(-c2ccc(N3CCN(CCC(F)F)CC3)cc2)cc1-c1cc2c(cc1F)C(=O)NCC2 [I-477, 6-(2-amino-5-(4-(4-(3,3-difluoropropyl)piperazin-1-yl)phenyl)-6-fluoropyridin-3-yl)-7-fluoro-3,4-dihydroisoquinolin-1(2H)-one]
17 | > 1000 | Nc1nc(F)c(-c2ccc(C3=CCOCC3)cc2C2CNC(=O)C2)cc1-c1cc2c(cc1F)C(=O)NCC2 (centres unmarked) [I-478, 6-(2-amino-5-(4-(3,6-dihydro-2H-pyran-4-yl)-2-(5-oxopyrrolidin-3-yl)phenyl)-6-fluoropyridin-3-yl)-7-fluoro-3,4-dihydroisoquinolin-1(2H)-one]
18 | > 1000 | Nc1nc(F)c(-c2ccc(C3CCOCC3)cc2C2CNC(=O)C2)cc1-c1cc2c(cc1F)C(=O)NCC2 (centres unmarked) [I-479, 6-(2-amino-6-fluoro-5-(2-(5-oxopyrrolidin-3-yl)-4-(tetrahydro-2H-pyran-4-yl)phenyl)pyridin-3-yl)-7-fluoro-3,4-dihydroisoquinolin-1(2H)-one]
19 | 11 to 100 | CN(C)Cc1cc(-c2cc(-c3ccc4c(=O)[nH]cc(F)c4c3)c(N)nc2F)ccc1N1CCOCC1 [I-480, 6-(2-amino-5-(3-((dimethylamino)methyl)-4-morpholinophenyl)-6-fluoropyridin-3-yl)-4-fluoroisoquinolin-1(2H)-one]
20 | 0.1 to 10 | CC(C)N1CCN(c2ccc(-c3cc(-c4cc(F)c5c(=O)[nH]cc(F)c5c4)c(N)nc3F)cc2)CC1 [I-482, 6-(2-amino-6-fluoro-5-(4-(4-isopropylpiperazin-1-yl)phenyl)pyridin-3-yl)-4,8-difluoroisoquinolin-1(2H)-one]
21 | 0.1 to 10 | Nc1nc(F)c(-c2ccc(N3CCN(CC4CC4)CC3)cc2)cc1-c1cc(F)c2c(=O)[nH]cc(F)c2c1 [I-483, 6-(2-amino-5-(4-(4-(cyclopropylmethyl)piperazin-1-yl)phenyl)-6-fluoropyridin-3-yl)-4,8-difluoroisoquinolin-1(2H)-one]
22 | 0.1 to 10 | Cc1nc2cc(-c3cc(-c4ccc(N5CCN(CCCC(F)F)CC5)cc4)c(F)nc3N)ccc2c(=O)[nH]1 [I-484, 7-(2-amino-5-(4-(4-(4,4-difluorobutyl)piperazin-1-yl)phenyl)-6-fluoropyridin-3-yl)-2-methylquinazolin-4(3H)-one]
23 | 11 to 100 | Cc1nc2cc(-c3cc(-c4ccc(N5CCN(CCC(F)F)CC5)cc4)c(F)nc3N)cc(F)c2c(=O)[nH]1 [I-485, 7-(2-amino-5-(4-(4-(3,3-difluoropropyl)piperazin-1-yl)phenyl)-6-fluoropyridin-3-yl)-5-fluoro-2-methylquinazolin-4(3H)-one]
